In DBAASP:
Converted amounts (≈) assume the structure as drawn. One block for each molecule: values may come before it.

What was measured:
Experiment in all cases: ≥ marks a high value that may be exact or a test limit, other limits are often not marked, values filed in µg/mL are converted to µM
[1] = test system: Escherichia coli BW25113
[2] = test system: Candida albicans
[3] = test system: Enterococcus faecalis ATCC 29212
[4] = test system: Escherichia coli UB1005
[5] = test system: Pseudomonas aeruginosa H103
[6] = test system: Salmonella enterica serovar Typhimurium
[7] = test system: Staphylococcus aureus ATCC 25923
[8] = test system: Staphylococcus epidermidis
[9] = test system: Candida albicans ATCC 90028
[10] = test system: Escherichia coli ATCC 25726
[11] = test system: Klebsiella pneumoniae ATCC 700603
[12] = test system: Pseudomonas aeruginosa ATCC 27853
[13] = test system: Bacillus subtilis KCTC 3068
[14] = test system: Escherichia coli KCTC 1682
[15] = test system: Pseudomonas aeruginosa KCTC 1637
[16] = test system: Salmonella typhimurium KCTC 1926
[17] = test system: Staphylococcus aureus KCTC 1621
[18] = test system: Staphylococcus epidermidis KCTC 1917
[19] = test system: Escherichia coli ATCC 25922

MIC [1]: 4 µM (≈ 9.6 µg/mL)
Compound: CC[C@H](C)[C@H](NC(=O)[C@@H]1CCCN1C(=O)[C@H](Cc1c[nH]c2ccccc12)NC(=O)[C@H](CCCN=C(N)N)NC(=O)[C@H](Cc1ccccc1)NC(=O)[C@@H](N)CCCN=C(N)N)C(=O)N[C@@H](CCCN=C(N)N)C(=O)N[C@@H](CCCN=C(N)N)C(=O)N[C@@H](CCCN=C(N)N)C(=O)N1CCC[C@H]1C(=O)N[C@H](C(=O)N[C@@H](CCCN=C(N)N)C(=O)N1CCC[C@H]1C(=O)N1CCC[C@H]1C(=O)N[C@@H](Cc1ccccc1)C(=O)N[C@@H](Cc1ccc(O)cc1)C(=O)N[C@@H](Cc1c[nH]c2ccccc12)C(=O)O)[C@@H](C)CC [RFRWPIRRRPIRPPFYW]

MIC [2]: 41.2 µM (≈ 56.1 µg/mL) | MIC [3]: 10.3 µM (≈ 14 µg/mL) | MIC [4]: 20.6 µM (≈ 28.1 µg/mL) | MIC [5]: ≥ 115 µM | MIC [6]: 20.6 µM (≈ 28.1 µg/mL) | MIC [7]: 2.6 µM (≈ 3.54 µg/mL) | MIC [8]: 2.6 µM (≈ 3.54 µg/mL)
Compound: NCCCC[C@H](NC(=O)[C@H](Cc1ccccc1)NC(=O)[C@H](CCCN=C(N)N)NC(=O)[C@H](CCCCN)NC(=O)[C@H](CCCCN)NC(=O)[C@H](CCCN=C(N)N)NC(=O)[C@@H](N)CCCCN)C(=O)N[C@@H](Cc1c[nH]c2ccccc12)C(=O)N[C@@H](Cc1c[nH]c2ccccc12)C(=O)O [KRKKRFKWW]

MIC [9]: ≥ 80 µM | MIC [10]: 20 µM (≈ 59.5 µg/mL) | MIC [11]: 20 µM (≈ 59.5 µg/mL) | MIC [12]: 20 µM (≈ 59.5 µg/mL) | MIC [7]: 40 µM (≈ 119 µg/mL)
Compound: CC[C@H](C)[C@H](NC(=O)CNC(=O)[C@H](CCCCN)NC(=O)[C@H](C)NC(=O)[C@@H](NC(=O)[C@H](CCCCN)NC(=O)[C@H](CCCCN)NC(=O)[C@H](CC(C)C)NC(=O)[C@@H](NC(=O)[C@H](CC(=O)O)NC(=O)[C@H](CCCCN)NC(=O)[C@@H](NC(=O)[C@H](Cc1ccccc1)NC(=O)CNC(=O)[C@@H]1CCCN1C(=O)[C@@H](NC(=O)[C@H](CCCCN)NC(=O)[C@@H](N)CC(C)C)[C@@H](C)CC)C(C)C)[C@@H](C)O)C(C)C)C(=O)N[C@@H](Cc1ccccc1)C(=O)N[C@@H](CO)C(=O)N[C@@H](C)C(=O)N[C@H](C(=O)N[C@@H](C)C(=O)NCC(=O)N[C@@H](C)C(=O)N[C@@H](CCSC)C(=O)N[C@H](C(=O)N1CCC[C@H]1C(=O)N[C@@H](CO)C(=O)O)[C@@H](C)O)C(C)C [LKIPGFVKDTLKKVAKGIFSAVAGAMTPS]

MIC [13]: 3.93 µM (≈ 6.25 µg/mL) | MIC [2]: 19.5 µM (≈ 31 µg/mL) | MIC [3]: 2.51 µM (≈ 4 µg/mL) | MIC [14]: 7.85 µM (≈ 12.5 µg/mL) | MIC [4]: 1.26 µM (≈ 2 µg/mL) | MIC [5]: 5.03 µM (≈ 8 µg/mL) | MIC [15]: 3.93 µM (≈ 6.25 µg/mL) | MIC [6]: 5.03 µM (≈ 8 µg/mL) | MIC [16]: 0.98 µM (≈ 1.56 µg/mL) | MIC [7]: 5.03 µM (≈ 8 µg/mL) | MIC [17]: 1.97 µM (≈ 3.13 µg/mL) | MIC [18]: 1.97 µM (≈ 3.13 µg/mL) | MIC [8]: 1.26 µM (≈ 2 µg/mL)
Compound: CC[C@H](C)[C@H](NC(=O)[C@H](CCCN=C(N)N)NC(=O)[C@H](CCCN=C(N)N)NC(=O)[C@H](CC(C)C)NC(=O)[C@@H](N)CCCN=C(N)N)C(=O)N[C@H](C(=O)N[C@H](C(=O)N[C@H](C(=O)N[C@@H](CCCN=C(N)N)C(=O)N[C@H](C(=O)N[C@@H](CCCN=C(N)N)C(=O)N[C@@H](CCCN=C(N)N)C(N)=O)C(C)C)[C@@H](C)CC)C(C)C)C(C)C [RLRRIVVIRVRR]

MIC [10]: 16.4 µM (≈ 62.5 µg/mL) | MIC [7]: 32.8 µM (≈ 125 µg/mL)
Compound: CC[C@H](C)[C@H](NC(=O)CN)C(=O)N[C@@H](Cc1ccccc1)C(=O)N[C@@H](CO)C(=O)N[C@@H](CC(C)C)C(=O)N[C@H](C(=O)N[C@@H](CCCCN)C(=O)NCC(=O)N[C@@H](C)C(=O)N[C@@H](C)C(=O)N[C@@H](CCC(N)=O)C(=O)N[C@@H](CC(C)C)C(=O)N[C@H](C(=O)NCC(=O)N[C@@H](CCCCN)C(=O)N[C@H](C(=O)N[C@H](C(=O)N[C@@H](C)C(=O)N[C@@H](CCCCN)C(=O)N[C@@H](CCC(=O)O)C(=O)N[C@@H](C)C(=O)NCC(=O)N[C@@H](CCCCN)C(=O)N[C@H](C(=O)NCC(=O)N[C@@H](CC(C)C)C(=O)N[C@@H](CCC(=O)O)C(=O)N[C@@H](CC(C)C)C(=O)N[C@@H](CCSC)C(=O)N[C@@H](C)C(=O)N[C@H]1CSSC[C@@H](C(=O)O)NC(=O)[C@H](CCC(N)=O)NC(=O)[C@H](CCCCN)NC(=O)[C@H]([C@@H](C)O)NC(=O)[C@H](C(C)C)NC(=O)[C@H](CCCCN)NC1=O)[C@@H](C)O)C(C)C)[C@@H](C)O)[C@@H](C)CC)[C@@H](C)CC [GIFSLIKGAAQLIGKTVAKEAGKTGLELMACKVTKQC]

MIC [1]: ≥ 64 µM
Compound: CC[C@H](C)[C@H](NC(=O)[C@H](CCCN=C(N)N)NC(=O)[C@@H]1CCCN1C(=O)[C@@H](NC(=O)[C@H](CCCN=C(N)N)NC(=O)[C@@H]1CCCN1C(=O)[C@@H](NC(=O)[C@@H]1CCCN1C(=O)[C@H](Cc1ccccc1)NC(=O)[C@@H]1CCCN1C(=O)[C@@H]1CCCN1C(=O)[C@@H]1CCCN1C(=O)[C@H](Cc1ccccc1)NC(=O)[C@H](CCCN=C(N)N)NC(=O)[C@@H]1CCCN1C(=O)[C@@H](N)CCCN=C(N)N)[C@@H](C)CC)[C@@H](C)CC)C(=O)N1CCC[C@H]1C(=O)O [RPRFPPPFPIPRIPRIP]

MIC [10]: ≥ 160 µM | MIC [7]: > 160 µM
Compound: CSCC[C@H](NC(=O)[C@H](CC(C)C)NC(=O)[C@@H]1CCCN1C(=O)CNC(=O)[C@H](CC(C)C)NC(=O)[C@H](CC(C)C)NC(=O)[C@H](C)NC(=O)CNC(=O)[C@H](CC(C)C)NC(=O)[C@@H](N)Cc1ccccc1)C(=O)N[C@@H](CC(N)=O)C(=O)N[C@@H](CC(C)C)C(=O)N[C@@H](CC(C)C)C(=O)N[C@@H](CCC(N)=O)C(N)=O [FLGALLGPLMNLLQ]

MIC [10]: 25 µM (≈ 67.6 µg/mL) | MIC [7]: 25 µM (≈ 67.6 µg/mL)
Compound: CSCC[C@H](NC(=O)[C@H](Cc1ccccc1)NC(=O)[C@H](CCCCN)NC(=O)CNC(=O)[C@H](C)NC(=O)[C@H](C)NC(=O)[C@H](CCCCN)NC(=O)[C@H](CC(C)C)NC(=O)CNC(=O)[C@H](Cc1ccccc1)NC(=O)[C@H](CCCCN)NC(=O)[C@H](CC(C)C)NC(=O)[C@H](C)NC(=O)[C@H](CCCCN)NC(=O)CNC(=O)[C@H](CC(C)C)NC(=O)[C@H](CC(C)C)NC(=O)[C@H](CO)NC(=O)CNC(=O)[C@H](CC(C)C)NC(=O)CN)C(=O)NCC(=O)NCC(=O)N[C@@H](CCC(=O)O)C(=O)N1CCC[C@H]1C(=O)N[C@@H](CCC(N)=O)C(=O)N[C@@H](CCC(N)=O)C(=O)O [GLGSLLGKALKFGLKAAGKFMGGEPQQ]

MIC [2]: 16.3 µM (≈ 21.6 µg/mL) | MIC [3]: 16.3 µM (≈ 21.6 µg/mL) | MIC [4]: 4.1 µM (≈ 5.43 µg/mL) | MIC [5]: ≥ 32.6 µM | MIC [6]: 8.2 µM (≈ 10.9 µg/mL) | MIC [7]: 4.1 µM (≈ 5.43 µg/mL) | MIC [8]: 1 µM (≈ 1.32 µg/mL)
Compound: CC[C@H](C)[C@H](NC(=O)[C@H](CCCCN)NC(=O)[C@H](Cc1c[nH]c2ccccc12)NC(=O)[C@H](CCCCN)NC(=O)[C@@H](N)Cc1ccc(O)cc1)C(=O)N[C@@H](CCCN=C(N)N)C(=O)N[C@@H](Cc1ccccc1)C(=O)N[C@@H](CCCCN)C(=O)N[C@@H](CCCN=C(N)N)C(=O)O [YKWKIRFKR]

MIC [1]: 8 µM (≈ 17.8 µg/mL)
Compound: CC[C@H](C)[C@H](NC(=O)[C@@H]1CCCN1C(=O)[C@H](CCCN=C(N)N)NC(=O)[C@H](CCCN=C(N)N)NC(=O)[C@H](CCCN=C(N)N)NC(=O)[C@@H](NC(=O)[C@@H]1CCCN1C(=O)[C@@H]1CCCN1C(=O)[C@H](CCCN=C(N)N)NC(=O)[C@H](Cc1ccccc1)NC(=O)[C@@H](N)CCCN=C(N)N)[C@@H](C)CC)C(=O)N[C@@H](CCCN=C(N)N)C(=O)N1CCC[C@H]1C(=O)N1CCC[C@H]1C(=O)N[C@@H](Cc1ccccc1)C(=O)N[C@@H](Cc1ccc(O)cc1)C(=O)N1CCC[C@H]1C(=O)O [RFRPPIRRRPIRPPFYP]

MIC [9]: ≥ 100 µM | MIC [10]: ≥ 50 µM | MIC [19]: 50 µM (≈ 120 µg/mL) | MIC [7]: > 200 µM
Compound: CC[C@H](C)[C@H](NC(=O)CN)C(=O)NCC(=O)N[C@@H](CCCCN)C(=O)N[C@@H](Cc1ccccc1)C(=O)N[C@@H](CC(C)C)C(=O)N[C@@H](Cc1cnc[nH]1)C(=O)N[C@@H](CO)C(=O)N[C@@H](C)C(=O)NCC(=O)N[C@@H](CCCCN)C(=O)N[C@@H](Cc1ccccc1)C(=O)NCC(=O)N[C@@H](CCCCN)C(=O)N[C@@H](C)C(=O)N[C@@H](Cc1ccccc1)C(=O)N[C@@H](CC(C)C)C(=O)NCC(=O)N[C@@H](CCC(=O)O)C(=O)N[C@H](C(=O)N[C@@H](CCSC)C(=O)N[C@@H](CCCCN)C(=O)N[C@@H](CO)C(=O)O)C(C)C [GIGKFLHSAGKFGKAFLGEVMKS]
